Assay results taken from publication PMC7830330, “A New CDK2 Inhibitor with 3-Hydrazonoindolin-2-One Scaffold Endowed with Anti-Breast Cancer Activity: Design, Synthesis, Biological Evaluation, and In Silico Insights” (Molecules, 2021).

Experiments:
Type in all cases: biochemical
c-Met [1] = target: T1, c-Met (Homo sapiens, UniProt P08581); test: Kinase-Glo Plus luminescence kinase assay, single dose […] (weak, partial inhibition)
CDK2 = target: T2, CDK2 (Homo sapiens, UniProt P24941); test: in vitro kinase assay, dose-response on CDK2/E (Kinase-Glo Plus luminescence described for CDK2/cyclin A2)
T2 construct: with cyclin E (IC50)

c-Met [2] = target: T1, c-Met; test: Kinase-Glo Plus luminescence kinase assay, single dose […]

T1 sequence (P08581 25-307): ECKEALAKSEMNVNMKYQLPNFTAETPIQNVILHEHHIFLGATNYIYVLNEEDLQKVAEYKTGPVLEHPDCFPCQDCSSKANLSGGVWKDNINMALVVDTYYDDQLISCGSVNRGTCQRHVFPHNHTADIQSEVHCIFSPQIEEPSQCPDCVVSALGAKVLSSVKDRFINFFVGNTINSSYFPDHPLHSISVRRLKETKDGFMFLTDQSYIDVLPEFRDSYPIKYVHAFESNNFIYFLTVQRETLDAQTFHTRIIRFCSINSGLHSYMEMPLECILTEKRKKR
T1 sequence (P08581 308-1390): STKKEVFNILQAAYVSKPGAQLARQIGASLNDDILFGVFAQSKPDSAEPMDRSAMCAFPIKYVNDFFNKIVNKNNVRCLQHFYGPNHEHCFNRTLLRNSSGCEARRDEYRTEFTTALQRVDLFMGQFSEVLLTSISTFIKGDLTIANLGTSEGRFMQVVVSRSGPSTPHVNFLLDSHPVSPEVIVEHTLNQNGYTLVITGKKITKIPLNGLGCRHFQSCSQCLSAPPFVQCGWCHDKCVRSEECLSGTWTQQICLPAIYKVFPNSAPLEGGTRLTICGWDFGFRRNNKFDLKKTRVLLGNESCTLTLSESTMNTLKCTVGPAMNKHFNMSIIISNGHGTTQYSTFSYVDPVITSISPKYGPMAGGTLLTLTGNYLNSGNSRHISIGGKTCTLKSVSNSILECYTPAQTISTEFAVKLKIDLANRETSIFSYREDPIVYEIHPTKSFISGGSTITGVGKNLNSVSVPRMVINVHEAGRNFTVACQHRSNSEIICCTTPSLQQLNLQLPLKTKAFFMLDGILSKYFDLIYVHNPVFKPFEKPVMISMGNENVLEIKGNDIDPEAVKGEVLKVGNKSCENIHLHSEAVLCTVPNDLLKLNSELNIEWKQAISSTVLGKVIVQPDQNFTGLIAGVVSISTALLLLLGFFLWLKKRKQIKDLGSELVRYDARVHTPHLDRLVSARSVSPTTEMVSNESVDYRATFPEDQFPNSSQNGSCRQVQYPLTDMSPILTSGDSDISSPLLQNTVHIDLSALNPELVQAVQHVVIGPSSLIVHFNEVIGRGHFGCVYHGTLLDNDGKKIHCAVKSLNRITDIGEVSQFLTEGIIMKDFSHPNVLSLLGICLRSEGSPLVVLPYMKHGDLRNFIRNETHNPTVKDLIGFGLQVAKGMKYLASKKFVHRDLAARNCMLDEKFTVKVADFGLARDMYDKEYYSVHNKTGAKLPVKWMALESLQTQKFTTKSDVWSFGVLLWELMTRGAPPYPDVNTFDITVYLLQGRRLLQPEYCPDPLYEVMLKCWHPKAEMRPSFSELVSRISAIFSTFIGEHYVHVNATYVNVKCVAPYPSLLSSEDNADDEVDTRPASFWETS

Structure (SMILES)	inhibition at 10 µM (c-Met [1]) [%]	IC50 (CDK2) [µM]	inhibition at 10 µM (c-Met [2]) [%]
COc1ccc2c(c1)/C(=N\NC(=O)Cc1c[nH]c3ccccc13)C(=O)N2 [HI 5]	27	6.32	–
CN[C@@H]1C[C@H]2O[C@@](C)([C@@H]1OC)n1c3ccccc3c3c4c(c5c6ccccc6n2c5c31)C(=O)NC4 [Staurosporine]	–	–	100
